Drawing on patent publication US20250221988A1 (Cullgen (Shanghai), Inc., priority 2022, published 2025), this text covers IC50 for 15 compounds.

One assay deals with MV4;11 cells. In words: Cell viability assay (CellTiter-Glo) in MV4;11 cells. The class given is cell-based. The conditions noted are these: read-out: MV4. Put shortly: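 After three days' exposure to 3-fold serial compound dilutions (8 or 12 points), viability of cells seeded at 5000/well is read by CellTiter-Glo. Runs were done alone or combined with gilteritinib at 10 nM (MV4;11) or 20 nM (MOLM-13); IC50 from nonlinear regression.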
A general note: Cellular ATP, detected with luciferase, serves as a proxy for viable cell number.

The test system of the next assay is MOLM-13 cells. In words: Cell viability assay (CellTiter-Glo) in MOLM-13 cells. In kind it is cell-based.
The mark [1] stands for this setting: Homo sapiens, MV4-11, 72 h, MV4;11 cells, compound alone, three days, 11 IC50.
[2] abbreviates: MV4;11 cells, with 10 nM gilteritinib, three days, 11 IC50 (nM) + 10 nM Gil.
The mark [3] stands for this setting: Homo sapiens, 72 h, MOLM-13 cells, compound alone, three days, read-out: MOLM-13 IC50.
[4] abbreviates: MOLM-13 cells, with gilteritinib, three days, read-out: MOLM-13 IC50 (nM) + 10 nM Gil.
Where [5] appears, read: Homo sapiens, MV4-11, 72 h, 11 IC50 (nM).
Setting [6] is: 11 IC50 (nM) + 10 nM Gil, MV4;11 cells, with 10 nM gilteritinib, three days.
[7] abbreviates: Homo sapiens, MOLM-13, 72 h, read-out: MOLM-13 IC50 (nM).
Setting [8] is: read-out: MOLM-13 IC50 (nM) + 10 nM Gil, MOLM-13 cells, with gilteritinib, three days.

SMILES strings stand for the structures. Like-named read-outs stand apart in the source and are kept apart here.

Turning to `Cn1cnc2cnc(-c3cn([C@H]4C[C@H](CNc5ccc6c(c5)C(=O)N(C5CCC(=O)NC5=O)C6=O)C4)nc3C3CC3)cc21` (stereo partly drawn) [GS-658, 5-(((Trans-3-(3-cyclopropyl-4-(1-methyl-1H-imidazo[4,5-c]pyridin-6-yl)-1H-pyrazol-1-yl)cyclobutyl)methyl)amino)-2-(2,6-dioxopiperidin-3-yl)isoindoline-1,3-dione], the IC50 in the assay on MV4;11 cells (setting [1]) is greater than 1000 nM; in the assay with MV4;11 cells (setting [2]), 100 to 1000 nM; in the assay with MOLM-13 cells (setting [3]) it was greater than 1000 nM; in the assay on MOLM-13 cells (setting [4]), 100 to 1000 nM.
As for `Cc1nc(-c2cn([C@H]3C[C@H](COc4ccc5c(c4)CN(C4CCC(=O)NC4=O)C5=O)C3)nc2C2CC2)ccc1F` (stereo partly drawn) [GS-787, 3-(5-((Trans-3-(3-cyclopropyl-4-(5-fluoro-6-methylpyridin-2-yl)-1H-pyrazol-1-yl)cyclobutyl)methoxy)-1-oxoisoindolin-2-yl)piperidine-2,6-dione], the IC50 with MV4;11 cells (setting [1]) and in the assay with MOLM-13 cells (setting [3]) was greater than 1000 nM throughout.
As to `O=C1CCC(N2C(=O)c3ccc(NC[C@H]4C[C@H](n5cc6ccccc6n5)C4)cc3C2=O)C(=O)N1` (stereo partly drawn) [GS-727, 5-(((Trans-3-(2H-indazol-2-yl)cyclobutyl)methyl)amino)-2-(2,6-dioxopiperidin-3-yl)isoindoline-1,3-dione], the IC50 with MV4;11 cells (setting [5]) was greater than 1000 nM; in the assay with MV4;11 cells (setting [6]) it was 100 to 1000 nM; with MOLM-13 cells (setting [7]), greater than 1000 nM; in the assay with MOLM-13 cells (setting [8]), 100 to 1000 nM.
As to `O=C1CCC(N2C(=O)c3ccc(NC[C@H]4C[C@H](n5cc(-c6ccc7[nH]ncc7n6)c(C6CC6)n5)C4)cc3C2=O)C(=O)N1` (stereo partly drawn) [GS-684, 5-(((Trans-3-(3-cyclopropyl-4-(1H-pyrazolo[4,3-b]pyridin-5-yl)-1H-pyrazol-1-yl)cyclobutyl)methyl)amino)-2-(2,6-dioxopiperidin-3-yl)isoindoline-1,3-dione], the IC50 lay within 10 to 100 nM in the assay with MV4;11 cells (setting [1]), 10 to 100 nM in the assay on MV4;11 cells (setting [2]), 100 to 1000 nM in the assay with MOLM-13 cells (setting [3]) and 10 to 100 nM in the assay on MOLM-13 cells (setting [4]).
In the case of `O=C1CCC(N2C(=O)c3ccc(NC[C@H]4C[C@H](n5cc(-c6ncc(F)cc6C6CCNCC6)c(C6CC6)n5)C4)cc3C2=O)C(=O)C1` (stereo partly drawn) [GS-686, 5-(((Trans-3-(3-cyclopropyl-4-(5-fluoro-3-(piperidin-4-yl)pyridin-2-yl)-1H-pyrazol-1-yl)cyclobutyl)methyl)amino)-2-(2,4-dioxocyclohexyl)isoindoline-1,3-dione], the IC50 in the assay with MV4;11 cells (setting [1]) was greater than 1000 nM; in the assay on MV4;11 cells (setting [2]), 100 to 1000 nM; with MOLM-13 cells (setting [3]) it was greater than 1000 nM; with MOLM-13 cells (setting [4]), 100 to 1000 nM.
Turning to `O=C1CCC(N2C(=O)c3ccc(NC[C@H]4C[C@H](n5cc(-c6cc7c(cn6)cnn7C6CC(O)C6)c(C6CC6)n5)C4)cc3C2=O)C(=O)N1` (stereo partly drawn) [GS-763, 5-(((Trans-3-(3-cyclopropyl-4-(1-(3-hydroxycyclobutyl)-1H-pyrazolo[4,3-c]pyridin-6-yl)-1H-pyrazol-1-yl)cyclobutyl)methyl)amino)-2-(2,6-dioxopiperidin-3-yl)isoindoline-1,3-dione], the IC50 in the assay on MV4;11 cells (setting [1]) is 10 to 100 nM; with MV4;11 cells (setting [2]) it was less than 10 nM; in the assay with MOLM-13 cells (setting [3]), 10 to 100 nM; in the assay with MOLM-13 cells (setting [4]) it was less than 10 nM.
As for `O=C1CCC(N2C(=O)c3ccc(NC[C@H]4C[C@H](n5cc(NC6CCC(O)CC6)c(C6CC6)n5)C4)cc3C2=O)C(=O)N1` (stereo partly drawn) [GS-709, 5-(((Trans-3-(3-cyclopropyl-4-((4-hydroxycyclohexyl)amino)-1H-pyrazol-1-yl)cyclobutyl)methyl)amino)-2-(2,6-dioxopiperidin-3-yl)isoindoline-1,3-dione], the IC50 in the assay on MV4;11 cells (setting [1]) and in the assay with MOLM-13 cells (setting [3]) was greater than 1000 nM throughout.
In the case of `COc1ccc2c(C3CC3)nn([C@H]3C[C@H](CNc4ccc5c(c4)C(=O)N(C4CCC(=O)NC4=O)C5=O)C3)c2n1` (stereo partly drawn) [GS-674, 5-(((Trans-3-(3-cyclopropyl-6-methoxy-1H-pyrazolo[3,4-b]pyridin-1-yl)cyclobutyl)methyl)amino)-2-(2,6-dioxopiperidin-3-yl)isoindoline-1,3-dione], the IC50 in the assay on MV4;11 cells (setting [1]) and with MOLM-13 cells (setting [3]) was greater than 1000 nM throughout.
`O=C1CCC(N2C(=O)c3ccc(NCCCn4cc(-c5cnc6ccccc6n5)c(C5CC5)n4)cc3C2=O)C(=O)N1` (stereo not drawn) [GS-642, 5-((3-(3-Cyclopropyl-4-(quinoxalin-2-yl)-1H-pyrazol-1-yl)propyl)amino)-2-(2,6-dioxopiperidin-3-yl)isoindoline-1,3-dione]: the IC50 was 10 to 100 nM with MV4;11 cells (setting [1]), less than 10 nM in the assay with MV4;11 cells (setting [2]), 10 to 100 nM in the assay on MOLM-13 cells (setting [3]) and less than 10 nM in the assay on MOLM-13 cells (setting [4]).
Take `Cc1nc(-c2cn([C@H]3C[C@H](CNc4ccc5c(c4)CN(C4CCC(=O)NC4=O)C5=O)C3)nc2C(F)F)ccc1F` (stereo partly drawn) [GS-677, 3-(5-(((Trans-3-(3-(difluoromethyl)-4-(5-fluoro-6-methylpyridin-2-yl)-1H-pyrazol-1-yl)cyclobutyl)methyl)amino)-1-oxoisoindolin-2-yl)piperidine-2,6-dione]: the IC50 in the assay with MV4;11 cells (setting [1]), with MV4;11 cells (setting [2]), in the assay with MOLM-13 cells (setting [3]) and in the assay with MOLM-13 cells (setting [4]) was less than 10 nM throughout.
Take `CC(C)n1ncc2ccc(-c3cn([C@H]4C[C@H](CNc5ccc6c(c5)C(=O)N(C5CCC(=O)NC5=O)C6=O)C4)nc3C3CC3)nc21` (stereo partly drawn) [GS-730, 5-(((Trans-3-(3-cyclopropyl-4-(1-isopropyl-1H-pyrazolo[3,4-b]pyridin-6-yl)-1H-pyrazol-1-yl)cyclobutyl)methyl)amino)-2-(2,6-dioxopiperidin-3-yl)isoindoline-1,3-dione]: the IC50 in the assay with MV4;11 cells (setting [5]) fell in the range of 10 to 100 nM; in the assay on MV4;11 cells (setting [6]), 10 to 100 nM; with MOLM-13 cells (setting [7]), 100 to 1000 nM; in the assay with MOLM-13 cells (setting [8]), 10 to 100 nM.
As to `Cn1nccc1-c1cn([C@H]2C[C@H](CNc3ccc4c(c3)C(=O)N(C3CCC(=O)NC3=O)C4=O)C2)nc1C1CC1` (stereo partly drawn) [GS-690, 5-(((Trans-3-(3′-cyclopropyl-2-methyl-1′H,2H-[3,4′-bipyrazol]-1′-yl)cyclobutyl)methyl)amino)-2-(2,6-dioxopiperidin-3-yl)isoindoline-1,3-dione], the IC50 with MV4;11 cells (setting [1]) and in the assay with MOLM-13 cells (setting [3]) was greater than 1000 nM throughout.
For the compound `Cn1cncc1-c1cn([C@H]2C[C@H](CNc3ccc4c(c3)C(=O)N(C3CCC(=O)NC3=O)C4=O)C2)nc1C1CC1` (stereo partly drawn) [GS-691, 5-(((Trans-3-(3-cyclopropyl-4-(1-methyl-1H-imidazol-5-yl)-1H-pyrazol-1-yl)cyclobutyl)methyl)amino)-2-(2,6-dioxopiperidin-3-yl)isoindoline-1,3-dione], the IC50 in the assay on MV4;11 cells (setting [1]) and with MOLM-13 cells (setting [3]) was greater than 1000 nM in each case.
Regarding `O=C1CCC(N2C(=O)c3ccc(NC[C@H]4C[C@H](n5cc(-c6cnc7c(NC(CO)CO)cccc7n6)c(C6CC6)n5)C4)cc3C2=O)C(=O)N1` (stereo partly drawn) [GS-710, 5-(((Trans-3-(3-cyclopropyl-4-(5-((1,3-dihydroxypropan-2-yl)amino)quinoxalin-2-yl)-1H-pyrazol-1-yl)cyclobutyl)methyl)amino)-2-(2,6-dioxopiperidin-3-yl)isoindoline-1,3-dione], the IC50 with MV4;11 cells (setting [1]) is 10 to 100 nM; in the assay on MV4;11 cells (setting [2]) it was less than 10 nM; in the assay with MOLM-13 cells (setting [3]), 10 to 100 nM; with MOLM-13 cells (setting [4]), less than 10 nM.
For the compound `CN1CCC(Nc2cn([C@H]3C[C@H](CNc4ccc5c(c4)C(=O)N(C4CCC(=O)NC4=O)C5=O)C3)nc2C2CC2)CC1` (stereo partly drawn) [GS-666, 5-(((Trans-3-(3-cyclopropyl-4-((1-methylpiperidin-4-yl)amino)-1H-pyrazol-1-yl)cyclobutyl)methyl)amino)-2-(2,6-dioxopiperidin-3-yl)isoindoline-1,3-dione], the IC50 with MV4;11 cells (setting [1]) and in the assay with MOLM-13 cells (setting [3]) was greater than 1000 nM in each case.
